Reference: US20230096766A1, “AMINO ACID HAVING FUNCTIONAL GROUP CAPABLE OF INTERMOLECULAR HYDROGEN BONDING, PEPTIDE COMPOUND CONTAINING SAME AND METHOD FOR PRODUCTION THEREOF” (Chugai Seiyaku Kabushiki Kaisha, priority 2018, published 2023)
*1 amine or outer side, *2 acyl side, *3 side chain or, on linkers, in order; H or OH if unused. Where a SMILES comes first, the peptide text is derived from it. Bridges are numbered along the chain shown (N, C = ends). [ ]: non-standard residue; d: D form. The star is where a group is joined. NMeAbu(3,3-F2-piperidino) = CN[C@@H](CCN1CCCC(F)(F)C1)C(=O)O; Phe(3-OMe,4-CONHMe) = CNC(=O)c1ccc(C[C@H](N)C(=O)O)cc1OC; X11 = CNC(=O)c1ccc(CCN(CC(=O)[*:2])[*:1])cc1OC; X18 = NN([C@@H](Cc1cccc(Cl)c1)C(=O)[*:2])[*:1]; NMePhe(3-Cl) = CN[C@@H](Cc1cccc(Cl)c1)C(=O)O; Tyr(3-F) = N[C@@H](Cc1ccc(O)c(F)c1)C(=O)O; X16 = CC(C)C(C)[C@H](N[*:1])C(=O)[*:2]; NMehPhe = CN[C@@H](CCc1ccccc1)C(=O)O; Propyl(2,2-Me2,3-OH) = CC(C)(CO)C*; Hyp = O=C(O)[C@@H]1C[C@@H](O)CN1; NMeF = CN[C@@H](Cc1ccccc1)C(=O)O; NMeGABA = CN(CCCC(=O)[*:2])[*:1]; Butyl(3-Me,3-OH) = CC(C)(O)CC*; NMeD = CN[C@@H](CC(=O)O)C(=O)O; CH2CH(OH)CF3 = OC(C*)C(F)(F)F; NMeL = CN[C@@H](CC(C)C)C(=O)O; dNMeL = CN[C@H](CC(C)C)C(=O)O; Butyl(3S-OH) = C[C@H](O)CC*; NMeV = CN[C@H](C(=O)O)C(C)C; NMeAbu = CC[C@H](NC)C(=O)O; NMeA = CN[C@@H](C)C(=O)O; Piperidide = C1CCN(*)CC1; X8 = C1COC[C@@H](C*)N1; NBuGly = CCCCNCC(=O)O; Isopentyl = CC(C)CC*; Ethyl(2-OH) = OCC*; Sar = CNCC(=O)O; tBu = CC(C)(C)*

assay: in vitro; conditions: human, Caco-2, Caco-2

`CCCCN1CC(=O)N(C)[C@@H](CCN2CCCC(F)(F)C2)C(=O)N[C@H](C(=O)N2CCCCC2)CC(=O)N(C)[C@@H](C)C(=O)N[C@@H](CC(C)C)C(=O)N(C)[C@@H](CC(C)C)C(=O)N(C)[C@@H](Cc2ccccc2)C(=O)N[C@@H](CC(C)C)C(=O)N(C)[C@@H](Cc2ccccc2)C(=O)N(C)[C@@H](C)C(=O)N[C@@H]([C@@H](C)O)C1=O` [pd392] ([NMeA]L[NMeL][NMeF]L[NMeF][NMeA]T[NBuGly][NMeAbu(3,3-F2-piperidino)]D-Piperidide; lactam N-11) showed a Papp of 3.5 ×10⁻⁶ cm/s.

same assay, conditions: human, Caco-2, Caco-2 (cm/sec)

`CC(C)C[C@H]1C(=O)N[C@@H]([C@@H](C)O)C(=O)N(C)CC(=O)N(C)[C@@H](Cc2cccc(Cl)c2)C(=O)N(C)[C@@H](CC(C)C)C(=O)N[C@@H](COC(C)(C)C)C(=O)N(C)[C@@H](CC(C)C)C(=O)N[C@H](C(=O)N2CCCCC2)CC(=O)N(C)CC(=O)N(C)[C@@H](CCc2ccccc2)C(=O)N[C@@H](COCCC(C)(C)O)C(=O)N1C` [AP57] ([Sar][NMehPhe]S(Butyl(3-Me,3-OH))[NMeL]T[Sar][NMePhe(3-Cl)][NMeL]S(tBu)[NMeL]D-Piperidide; lactam N-11) and `CCCCN1CC(=O)N(C)[C@@H](Cc2ccccc2)C(=O)N(C)[C@@H](C(C)C)C(=O)N[C@@H](COC(C)(C)C)C(=O)N(C)[C@@H](CC(C)C)C(=O)N[C@H](C(=O)N2CCCCC2)CC(=O)N(C)CC(=O)N(C)[C@@H](Cc2cccc(Cl)c2)C(=O)N[C@@H](COCC(C)(C)CO)C(=O)N(C)[C@@H](CC(C)C)C(=O)N[C@@H]([C@@H](C)O)C1=O` [AP123] ([Sar][NMePhe(3-Cl)]S(Propyl(2,2-Me2,3-OH))[NMeL]T[NBuGly][NMeF][NMeV]S(tBu)[NMeL]D-Piperidide; lactam N-11) are within 1.5-fold of each other in Papp: 0.83 ×10⁻⁶ cm/s for the first, 0.8 ×10⁻⁶ cm/s for the second.

Compared with `CCCCN1CC(=O)N(C)[C@@H](CC(C)C)C(=O)N[C@@H](Cc2ccc(C(=O)NC)c(OC)c2)C(=O)N(C)[C@@H](CC(C)C)C(=O)N(C)[C@@H](CC(C)C)C(=O)N[C@H](C(=O)N2CCCCC2)CC(=O)N[C@H](CC(C)C)C(=O)N(C)[C@@H](Cc2ccccc2)C(=O)N[C@@H](C(C)C)C(=O)N(C)[C@@H](CC(C)C)C(=O)N[C@@H]([C@@H](C)O)C1=O` [AP28] ([dL][NMeF]V[NMeL]T[NBuGly][NMeL][Phe(3-OMe,4-CONHMe)][NMeL][NMeL]D-Piperidide; lactam N-11), `CC[C@H]1C(=O)N[C@@H]([C@@H](C)O)C(=O)N(CCc2ccc(C(=O)NC)c(OC)c2)CC(=O)N(C)[C@@H](CC(C)C)C(=O)N[C@@H](COC(C)(C)C)C(=O)N(C)[C@@H](CC(C)C)C(=O)N(C)[C@@H](CC(C)C)C(=O)N[C@H](C(=O)N2CCCCC2)CC(=O)N[C@H](C)C(=O)N(C)[C@@H](Cc2ccccc2)C(=O)N[C@@H](CC(C)C)C(=O)N1C` [AP216] ([dA][NMeF]L[NMeAbu]T[X11][NMeL]S(tBu)[NMeL][NMeL]D-Piperidide; lactam N-11) is 2.6-fold higher in Papp: 0.38 ×10⁻⁶ cm/s for the first, 0.99 ×10⁻⁶ cm/s for the second.

`CC(C)CCOC[C@@H]1NC(=O)[C@H](Cc2ccccc2)N(C)C(=O)[C@H](Cc2ccccc2)N(C)C(=O)[C@H](COCCC(C)(C)O)NC(=O)[C@H](CC(C)C)N(C)C(=O)CCCN(C)C(=O)C[C@@H](C(=O)N2CCCCC2)NC(=O)[C@H](CC(C)C)N(C)C(=O)[C@H](CC(C)C)N(C)C(=O)[C@H]([C@@H](C)O)NC(=O)[C@H](C(C)C)N(C)C1=O` [AP53] ([NMeGABA][NMeL]S(Butyl(3-Me,3-OH))[NMeF][NMeF]S(Isopentyl)[NMeV]T[NMeL][NMeL]D-Piperidide; lactam N-11) and `CCCCN1CC(=O)N(C)[C@@H](Cc2ccccc2)C(=O)N(C)[C@@H](C(C)C)C(=O)N[C@@H](COC(C)(C)C)C(=O)N(C)[C@@H](CC(C)C)C(=O)N[C@H](C(=O)N2CCCCC2)CC(=O)N(C)CC(=O)N(N)[C@@H](Cc2cccc(Cl)c2)C(=O)N[C@@H](COCC[C@H](C)O)C(=O)N(C)[C@@H](CC(C)C)C(=O)N[C@@H]([C@@H](C)O)C1=O` [AP105] ([Sar][X18]S(Butyl(3S-OH))[NMeL]T[NBuGly][NMeF][NMeV]S(tBu)[NMeL]D-Piperidide; lactam N-11) are within 1.5-fold of each other in Papp: 0.74 ×10⁻⁶ cm/s for the first, 0.55 ×10⁻⁶ cm/s for the second.

Compared with `CC(C)C[C@@H]1NC(=O)[C@H](C)N(C)C(=O)C[C@@H](C(=O)N2CCCCC2)NC(=O)[C@H](CC(C)C)N(C)C(=O)CN(C)C(=O)[C@H](Cc2ccc(O)c(F)c2)NC(=O)[C@H](CC(C)C)N(C)C(=O)[C@H](C)N(C)C(=O)[C@H](C)NC(=O)[C@H](Cc2ccccc2)N(C)C(=O)[C@H](CC(C)C)N(C)C1=O` [pd120] ([NMeA]L[NMeL][NMeF]A[NMeA][NMeL][Tyr(3-F)][Sar][NMeL]D-Piperidide; lactam N-11), `CCCCN1CC(=O)N(C)[C@@H](Cc2ccccc2)C(=O)N(C)[C@@H](CC(C)C)C(=O)N[C@@H](C(C)C)C(=O)N(C)[C@@H](CC(C)C)C(=O)N[C@H](C(=O)N2CCCCC2)CC(=O)N(C)CC(=O)N(C)[C@@H](CC(C)C)C(=O)N[C@@H](COC[C@@H]2COCCN2)C(=O)N(C)[C@@H](CC(C)C)C(=O)N[C@@H]([C@@H](C)O)C1=O` [AP244] ([Sar][NMeL]S(X8)[NMeL]T[NBuGly][NMeF][NMeL]V[NMeL]D-Piperidide; lactam N-11) is 2-fold higher in Papp: 0.23 ×10⁻⁶ cm/s for the first, 0.46 ×10⁻⁶ cm/s for the second.

First: CC(C)C[C@@H]1NC(=O)[C@H](Cc2ccccc2)N(C)C(=O)[C@H](COC(C)(C)C)NC(=O)[C@H](Cc2ccccc2)N(C)C(=O)[C@H](C)N(C)C(=O)[C@H](CC(C)C)N(C)C(=O)[C@H]2CCCN2C(=O)C[C@@H](C(=O)N2CCCCC2)N(C)C(=O)[C@H](Cc2ccccc2)N(C)C(=O)[C@H]([C@@H](C)O)NC(=O)[C@H](C(C)C)N(C)C1=O [pd219] ([dP][NMeL][NMeA][NMeF]S(tBu)[NMeF]L[NMeV]T[NMeF][NMeD]-Piperidide; lactam N-11)
Second: CC[C@H](C)[C@@H]1NC(=O)[C@H](CC(C)C)N(C)C(=O)[C@@H]2C[C@@H](OCCO)CN2C(=O)[C@H]([C@@H](C)O)NC(=O)[C@H](CC(C)C)N(C)C(=O)[C@H](CC(C)C)NC(=O)[C@H](C(C)C(C)C)NC(=O)[C@@H](CC(C)C)N(C)C(=O)C[C@@H](C(=O)N2CCCCC2)NC(=O)[C@H](CC(C)C)NC(=O)[C@H](CC(C)C)N(C)C1=O (stereo partly shown) [AP233] ([dNMeL][X16]L[NMeL]T[Hyp](Ethyl(2-OH))[NMeL]I[NMeL]LD-Piperidide; lactam N-11)
The Papp of the first is 2.7-fold lower: 1.1 ×10⁻⁶ cm/s for the first, 3 ×10⁻⁶ cm/s for the second.

same assay, conditions: human, Caco-2, Caco-2 (cm/sec) Papp

With `CC(C)C[C@@H]1NC(=O)[C@H](Cc2ccccc2)N(C)C(=O)[C@H](C(C)C)N(C)C(=O)C[C@@H](C(=O)N2CCCCC2)NC(=O)[C@H]([C@@H](C)O)NC(=O)[C@H](Cc2ccccc2)N(C)C(=O)[C@H](Cc2ccccc2)NC(=O)[C@H](Cc2ccccc2)N(C)C(=O)CN(C)C(=O)[C@H](C)N(C)C(=O)[C@H](CC(C)C)N(C)C1=O` [pd229] ([NMeV][NMeF]L[NMeL][NMeA][Sar][NMeF]F[NMeF]TD-Piperidide; lactam N-11) the Papp was 0.41 ×10⁻⁶ cm/s.

same assay, conditions: human, Caco-2, Caco-2 (membrane permeability)

`CC[C@H](C)[C@@H]1NC(=O)[C@H](CC(C)C)N(C)C(=O)[C@H](COCC(O)C(F)(F)F)NC(=O)[C@H](Cc2ccccc2)N(C)C(=O)CN(C)C(=O)C[C@@H](C(=O)N2CCCCC2)NC(=O)[C@H](CC(C)C)N(C)C(=O)[C@H](COC(C)(C)C)NC(=O)[C@H](CC(C)C)N(C)C(=O)[C@H](Cc2ccccc2)N(C)C(=O)CN(C)C1=O` (stereo partly drawn) [Compound C17] ([Sar][NMeF]S(CH2CH(OH)CF3)[NMeL]I[Sar][NMeF][NMeL]S(tBu)[NMeL]D-Piperidide; lactam N-11) showed a Papp of 4.1 ×10⁻⁶ cm/s.
